Assay [1] relates to hyperoxidation reaction of lipid (microsome fraction). Nature of the assay: Pharmacological test 3: antioxidation action, hyperoxidation reaction of lipid due to ascorbic acid induction in liver microsome fraction (TBA value). It is filed as biochemical, Wister rat. The conditions noted are these: 37° C., 15 minutes; 200 μM ascorbic acid, 20 μM ferrous sulfate; read-out: IC50 (antioxidation, 50% inhibition concentration). As to the method: (The measurement of antioxidation action)
The antioxidation action was measured using the hyperoxidation reaction of lipid due to ascorbic acid induction [Shimada, O. and Yasuda, H. BBA489, 163-172 (1977)].
Microsome fraction was obtained from a lever of Wister rat by a Kato's method [J. Biochem., 59, 574 (1966)]. This fraction was added to a 60 mM potassium phosphate buffer solution (containing 45 mM potassium chloride, 200 μM ascorbic acid and 20 μM ferrous sulfate) in an amount of 1 mg/ml and the test compound (0.1% dimethyl sulfoxide) was added, and the mixture was incubated at 37° C. for 15 minutes. The same amount of 10% trichloroacetic acid was added and the resultant was centrifuged. A portion of the supernatant was collected and the amount of malondialdehyde due to thiobarbituric acid (TBA value) was measured [Klaassen, C. D. and Plaa, G. L. Biochem. Pharmacol., 18: 2019 (1969)]. The inhibition ratio was calculated by the following formula:
Inhibition ratio={1-(TBA value of specimen)/(TBA value of […]
A general note: Liver microsomes are a subcellular fraction often used to study metabolism.

A further assay addresses T1, C-GMP-PDE (type V) (Homo sapiens, UniProt O76074).
T1 construct: from tissue; host or cells: human blood platelets (healthy adult), DEAE-cellulose fraction FI
Nature of the assay: Pharmacological test 4: C-GMP-PDE (type V) inhibition action. It is filed as biochemical. As to conditions: FI fraction from human blood platelet. How it is done:
(C-GMP-PDE (type V) inhibition action)
The separation and purification of PDE from a human blood platelet was conducted according to a method of Hidaka et al. [Hidaka, H. and Asano, I., Biochem. Biophys. Acta 429, 485-497 (1976)]. That is, a blood platelet derived from a healthy adult was washed with water, floated with a Tris buffer solution and centrifuged. Then, the supernatant thereof was applied to DEAE-cellulose and separated into three fractions, FI, FII and FIII due to concentration gradient of sodium acetate. By using FI having high affinity to C-GMP, the inhibition action of the test compound was examined. The influence of the drug on PDE was represented by the inhibition ratio to PDE activity in the absence of the drug.

Assay [2] has as its system mouse dorsal root ganglion cells. As to the kind of experiment: Pharmacological Test 2: neurite outgrowth in primary culture of mouse dorsal root ganglion cells. Format: cell-based, mouse (C57BL/6). Also on record: key: +: positive; ±: false positive; -: negative. The conditions noted are these: Dose 10^-7 (mole); 7 days culture. As to the method: (The measurement of neurite outgrowth in primary culture of mouse dorsal root ganglion cells)
Preparation of cells was conducted according to a method of Horie et al. [H. Horie., FEBS, 296, 23 (1990)]. That is, C57BL/6 male mice aged 10 to 15 weeks were used. They were bleeded to death under ether anesthetization and the backbone from cervical vertebra to sacral vertebra was removed. The capsule of dorsal root ganglion of which ventral root and dorsal root had been cut was stripped in a Ham F12 medium (Flow laboratories) and then ganglia were treated with 0.25% collagenase (Worthington Biochemical Corporation) at 37° C. for 90 minutes. The medium was replaced by a Hank's physiological buffer solution containing no calcium and magnesium and cells were treated with 0.25% trypsin (Flow Laboratories) at room temperature for 20 minutes. A trypsin inhibitor (Sigma, 100 μg/ml) was added to terminate the enzyme reaction and trituration was conducted 20 times using a tapered Pasteur pipette. The medium was replaced again by the Ham F12 medium and cells were put through a nylon mesh (150 μm) to remove a cell mass which had not been separated. Cells were suspended in the Ham F12 medium containing a N1 additive [Bottenstein, J. E., Exp. Cell. Res., 125, 183 (1980)] (kanamycin of 60 μg/ml added).
A poly-1-lysine-coating cell disc as a culture medium which had been subjected to 10 μg/ml laminin (Koken Cell Gen) coating treatment at 37° C. for 3 hours was placed on a 24 well dish and nerve cells (5000 to 10000 cells/dish) were seeded. The test compound (concentration: 0.01 mol/l) was dissolved in dimethyl sulfoxide and diluted with a phosphate buffer solution to adjust to a final concentration, and then added to a culture solution. Cells were cultured in 5% CO2 -95% air phase at 37° C. for 7 days.
For the measurement of neurite outgrowth, the cell disc was washed with a phosphate buffer solution 7 days after initiation of the culture and immobilized with 4% paraformaldehyde at 4° C. for 24 hours, and then immune staining was conducted with Vecstatin ABC kit (Vector) using a neurofilament antibody (200 kD, manufactured by Boehringer Mannheim GmbH). The periphery of the cell disc was restrictively observed under microscopy, and the amount of neurofilament (whole length per well) was evaluated by comparing with the control well according to the following criteria: positive (+), false positive (±) and negative (-).

Assay [3] relates to Nerve cells of the cerebral cortex. As to the kind of experiment: Pharmacological test 1: neurite sprouting (NS) of cultured fetal rat cerebral cortex nerve cells, phase contrast microscopy versus control. Format: cell-based. Also on record: key: ++: extremely strong in comparison with the control; +: strong in comparison with the control; ±: same as the control; -: inferior to the control. The conditions noted are these: 10 days after initiation of culture. The text has this: Nerve cells of the cerebral cortex were removed aseptically from a fetal rat (17 days-old) and cultured according to a Asou's method [Asou, H. Brain Res., 332; pages 355-357 (1985)]. After the meninx, blood vessel, etc. were removed from the cerebral hemisphere, they were put through a stainless steel mesh (pore size: 140μm). Then, the isolated cells were floated on a culture medium (Eagle's basal medium containing 10% fetal bovine serum and glucose of 1 g/l) and 1.5×10^6 cells were respectively seeded on a dish (diameter: 35 mm) coated with poly-L-lysine to initiate the culture (37° C., 3% CO2). After 24 hours, the culture medium was replaced by a culture medium containing a test compound and cultured for additional 9 days.
10 Days after initiation of the culture, neurite sprouting (NS) was evaluated under phase contrast microscopy by comparing with the control group.

For `C=CCc1ccc2c(c1O)-c1ccc(O)c(CC=C)c1C2=O` [Example 27, 1,6-Diallyl-2,5-dihydroxyfluorenone], the IC50 in assay [1] stood at 1.6 µM; against C-GMP-PDE (type V), 8.7 µM. In addition, the Neurite outgrowth action entry in assay [2] is given as “+”. For the same compound, the “neurite sprouting (NS)” value in assay [3] (Dose 10^-5 (mole)) was “+”.
As for `C=CCc1cc2c(c(CC=C)c1O)C(=O)c1c(CC=C)cc(CC=C)c(O)c1-2` [Example 31], the IC50 in assay [1] amounted to 0.2 µM; against C-GMP-PDE (type V) it was 0.4 µM. Besides, the Neurite outgrowth action entry in assay [2] was “+”. Further, the “neurite sprouting (NS)” value in assay [3] (Dose 10^-7 (mole)) is given as “+”.
On to `C=CCc1c(O)c(O)c(CC=C)c2c1C(=O)c1ccccc1-2` [Example 21, 1,4-diallyl-2,3-dihydroxyfluorenone], for which the figures for the IC50 (in assay [1]; at C-GMP-PDE (type V)) were 0.1 µM and 14.7 µM, respectively. Also, the Neurite outgrowth action entry in assay [2] is “+”. In addition, the “neurite sprouting (NS)” value in assay [3] (Dose 10^-7 (mole)) is “++”.
Take `C=CCc1cc2c(cc1O)C(=O)c1cc(O)c(CC=C)cc1-2` [Example 49]: the IC50 in assay [1] was 2.1 µM; against C-GMP-PDE (type V), 2.2 µM. In addition, the Neurite outgrowth action entry in assay [2] is “+”. Besides, the “neurite sprouting (NS)” value in assay [3] (Dose 10^-6 (mole)) was “+”.
For `C=CCc1cc2c(cc1O)C(=O)c1c-2ccc(O)c1CC=C` [Example 47, 1,6-Diallyl-2,7-dihydroxyfluorenone], the IC50 in assay [1] was found to be 0.2 µM; against C-GMP-PDE (type V) it was 3.4 µM. Moreover, the Neurite outgrowth action result in assay [2] is recorded as “+”. In assay [3] (Dose 10^-6 (mole)), the “neurite sprouting (NS)” value is recorded as “+”.

These data come from patent US5942641A, “Fluorenone derivatives, process for preparing the same and central or peripheral nerve degeneration repair and protective agent” (Otsuka Pharmaceutical Co., Ltd., priority 1993, dated 1999).
